The target of the test is human IDO1 (Homo sapiens, UniProt P14902). The test is described as follows: Assessment of human IDO-1 inhibitory activity in Hela cells (Interferon-gamma stimulated HeLa cells, Ehrlich reagent, absorbance 490 nm). The test is classed as cell-based. Also on record: endogenous in cells; host or cells: HeLa cells stimulated with interferon-gamma. To be noted: Hela Human IDO-1 cellular assay. In short, it runs like this: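 HeLa cells pre-incubated with compound 1 h at 37 °C, then stimulated with human IFN-γ (10 ng/ml final) or murine IFN-γ (5 ng/ml final) for 18 h. Kynurenine read with Ehrlich reagent at 490 nm after TCA (3%) and 50 °C treatment; IC50 normalized to unstimulated (100%) and IFN-γ-only (0%) wells.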
human IDO1, sequence (P14902 whole entry): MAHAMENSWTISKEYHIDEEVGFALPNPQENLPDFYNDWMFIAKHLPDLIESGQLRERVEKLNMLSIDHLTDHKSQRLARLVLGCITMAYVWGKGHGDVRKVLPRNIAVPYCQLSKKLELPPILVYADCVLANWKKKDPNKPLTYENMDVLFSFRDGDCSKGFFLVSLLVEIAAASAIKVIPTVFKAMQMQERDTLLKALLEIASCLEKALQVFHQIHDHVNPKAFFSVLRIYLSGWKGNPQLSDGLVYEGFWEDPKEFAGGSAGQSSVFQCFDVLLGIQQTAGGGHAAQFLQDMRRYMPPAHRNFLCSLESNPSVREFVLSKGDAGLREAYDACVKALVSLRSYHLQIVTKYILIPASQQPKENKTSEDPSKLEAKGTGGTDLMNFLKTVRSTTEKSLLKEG

Bounds are passed on as bounds.

In general, IC50 refers to the concentration at which inhibition is half-maximal. A lower IC50 goes with greater potency.

As to `CCCN(c1ccc([C@H](COC)CC(=O)O)cc1NC(=O)Nc1ccc(C#N)cc1)C1CCOCC1` (single isomer, unassigned) [Example 577], the IC50 is > 0.05 µM.

Take `CCN(c1ccc([C@@H](CC(=O)O)C(F)(F)F)cc1Nc1cnc(OC)nc1)C1CCOCC1` (single isomer, unassigned) [Example 601]: the IC50 is < 0.005 µM.

Regarding `COCC(CC(=O)O)c1ccc(N2C[C@@H](C)O[C@@H](C)C2)c(Nc2ccc(Cl)cc2)c1` (single isomer, unassigned) [Example 603], the IC50 is > 0.05 µM.

As to `COCC(CC(=O)O)c1ccc(N2C[C@@H](C)O[C@@H](C)C2)c(NC(=O)Nc2ccc(C#N)cc2)c1` (single isomer, unassigned) [Example 605 Diastereomer 1], the IC50 is > 0.05 µM.

Consider `COCC(CC(=O)O)c1ccc(N2C[C@@H](C)O[C@@H](C)C2)c(NC(=O)Nc2ccc(Cl)cc2F)c1` (single isomer, unassigned) [Example 606], for which the IC50 was > 0.05 µM.

Regarding `CCN(c1ccc(C(C)CC(=O)O)cc1Nc1cnc(OC)nc1)C1CCOCC1` (single isomer, unassigned) [Example 620, 3-(4-(ethyl(tetrahydro-2H-pyran-4-yl)amino)-3-((2-methoxypyrimidin-5-yl)amino)phenyl)butanoic acid], the IC50 is < 0.05 µM.

Consider `CCCOc1ncc(Nc2cc(C(C)CC(=O)O)ccc2N(CC)C2CCOCC2)cn1` (single isomer, unassigned) [Example 621, 3-(4-(ethyl(tetrahydro-2H-pyran-4-yl)amino)-3-((2-propoxypyrimidin-5-yl)amino)phenyl)butanoic acid], for which the half-maximal inhibitory concentration (IC50) is < 0.05 µM.

`CCN(c1ccc(C(C)CC(=O)O)cc1Nc1cnc(OC(C)C)nc1)C1CCOCC1` (single isomer, unassigned) [Example 622, 3-(4-(ethyl(tetrahydro-2H-pyran-4-yl)amino)-3-((2-isopropoxypyrimidin-5-yl)amino)phenyl)butanoic acid]: the IC50 was > 0.05 µM.

As to `CCOc1ccc(Nc2cc(C(C)CC(=O)O)ccc2N(CC)C2CCOCC2)nn1` (single isomer, unassigned) [Example 624, 3-(3-((6-ethoxypyridazin-3-yl)amino)-4-(ethyl (tetrahydro-2H-pyran-4-yl)amino)phenyl)butanoic acid], the concentration for half-maximal inhibition (IC50) is > 0.05 µM.

Regarding `CCN(c1ccc(C(C)CC(=O)O)cc1Nc1ccc(C#N)cc1)C1CCOCC1` (single isomer, unassigned) [Example 625, 3-(3-((4-cyanophenyl)amino)-4-(ethyl(tetrahydro-2H-pyran-4-yl)amino)phenyl)butanoic acid], the concentration for half-maximal inhibition (IC50) is < 0.005 µM.

In the case of `CCN(c1ccc(C(C)CC(=O)O)cc1Nc1cnc(OCC2CC2)nc1)C1CCOCC1` (single isomer, unassigned) [Example 626, 3-(3-((2-(cyclopropylmethoxy)pyrimidin-5-yl)amino)-4-(ethyl(tetrahydro-2H-pyran-4-yl)amino)phenyl)butanoic acid], the IC50 was < 0.05 µM.

For the compound `CCN(c1ccc(C(C)CC(=O)O)cc1Nc1ccc(F)cc1)C1CCOCC1` (single isomer, unassigned) [Example 627, 3-(4-(ethyl(tetrahydro-2H-pyran-4-yl)amino)-3-((4-fluorophenyl)amino)phenyl) butanoic acid], the IC50 is < 0.005 µM.

Take `CCN(c1ccc(C(C)CC(=O)O)cc1Nc1ccc2c(c1)OC(F)(F)O2)C1CCOCC1` (single isomer, unassigned) [Example 628, 3-(3-((2,2-difluorobenzo[d] [1,3]dioxol-5-yl)amino)-4-(ethyl(tetrahydro-2H-pyran-4-yl)amino)phenyl)butanoic acid]: the IC50 was < 0.005 µM.

On to `CCN(c1ccc(C(C)CC(=O)O)cc1Nc1ccc2nc(C)sc2c1)C1CCOCC1` (single isomer, unassigned) [Example 629, 3-(4-(ethyl(tetrahydro-2H-pyran-4-yl)amino)-3-((2-methylbenzo[d]thiazol-6-yl)amino)phenyl)butanoic acid], for which the IC50 is < 0.05 µM.

These data come from patent US9790169B2, “IDO inhibitors” (BRISTOL-MYERS SQUIBB COMPANY, priority 2015, dated 2017).
